We go through 26 compounds from US12275733B2, “Substituted pyrido[3,4-b]indoles for the treatment of cartilage disorders” (Sanofi, priority 2016, dated 2025).

SMILES strings stand for the structures.

This test has as its system ATDC5 cells. The test is described as follows: Chondrogenesis activity assay in ATDC5 cells (collagen type II induction, immunofluorescence). The class given is cell-based, mouse. The conditions noted are these: Mus musculus; for EC50: collagen type II induction in ATDC5 cells, concentration reaching 50% of maximum induction; for Emax: maximum percent induction of collagen type II relative to internal reference compound at 10 μM, ATDC5 cells. The method, then:
A) Chondrogenesis Activity Assay in ATDC5 Cells
The chondrogenic potential of the compounds of the invention was determined using clonal mouse chondrogenic ATDC5 cells (T. Atsumi et al., Cell Differ. Dev. 1990, 30, 109-116). ATDC5 cells are derived from mouse embryonic AT805 teratocarcinoma cells and are used frequently to study the multistep chondrogenic differentiation process from precursor cells into chondrocytes (C. Shukunami et al., Exp. Cell Res. 1998, 241, 1-11; H. Aklyami et al., J. Bone Miner. Res. 1996, 11, 22-28; H. Akiyami et al., Biochem. Biophys. Res. Commun. 1997, 235, 142-147; C. Shukunami et al., J. Cell Biol. 1996, 133, 457-468; C. Shukunami et al., J. Bone Miner. Res. 1997, 12, 1174-1188). Undifferentiated ATDC5 cells grow in vitro until confluence, showing a fibroblast-like morphology. In the presence of insulin, cells undergo transient condensation and form numerous nodular structures (cartilage nodules). The cartilagenous nature of these nodules was shown by Alcian Blue staining as evidence of the production of proteoglycan (aggrecan) and collagen type II expression (by expression analysis), both molecular markers of chondrocytes (C. Shukunami et al., J. Cell Biol. 1996, 133, 457-468).
Chondrogenic differentiation of ATDC5 cells into chondrocytes by the compounds of the invention was determined by measuring the induction of type II collagen protein as a marker of chondrocytes, a structural component of the extracellular matrix which constitutes more than 80% of cartilage mass (D. R. Eyre, Clin. Orthop. Relat. Res. 2004, 427 Suppl, S118-S122). ATDC5 cells were obtained from RIKEN and cultured as monolayer in basal culture medium (Dulbecco's Modified Eagle Medium/Nutrient Mixture F-12 (DMEM/F12, Invitrogen, #31331-093) supplemented with 10 μg/ml Transferrin (Roche, #10652 202001), 3×10E−8 M sodium seienite (Sigma, #S-5261) and 5% Fetal Calf Serum (FCS Gold, PAA, #A15-251)), at 37° C., and 5% CO2 in plastic flasks of 75 cm^2 or 300 cm^2 subconfluently for propagation. ATDC5 cells were harvested and resuspended in differentiation culture medium that consisted of basal culture medium complemented with 10 μg/ml insulin (Sigma, #19278), to initiate chondrogenic differentiation. For studying the effect of test compounds, the ATDC5 cells were plated in 96-well plates (3.0×10E4 cells per well in 200 μl of differentiation culture medium). Test compounds dissolved in DMSO were added to yield increasing compound concentrations, typically from 40 nM to 10 μM, and a final DMSO concentration of 0.1%. On each 96-well plate, control wells containing no test compound but the same concentration of DMSO, i.e. untreated cells, were included and used as reference for the determination of the effect of the test compounds on the cells, and wells containing an internal reference compound at a concentration of 10 μM were included and used as positive control and for standardizing the results. Cells in the wells were incubated for 4 days at 37° C., and 5% CO2, followed by quantification of intracellular collagen type II.
Quantification of collagen type II in the ATDC5-cells was done by immunofluorescence staining of collagen type II, and fluorescence intensity was measured using a cellular high content imaging system (ImageXpress, Molecular Device). For immunofluorescence staining of intracellular collagen, medium was removed after compound incubation and cells were fixed with 200 μl/well methanol/water (95%/5%). Cells were permeabilized in 200 μl/well phosphate-buffered saline (PBS) containing 0.2% Triton X100 for 15 min and, after removal of the solution, blocked for 30 min with 200 μl/well PBS/0.2% Triton X100 containing 1% bovine serum albumin (BSA) to avoid unspecific binding. After the blocking step, the solution was removed and collagen type II staining solution was added. […]

The EC50 is the concentration at which the effect is half-maximal. Low values mean a more potent agent, high ones a less potent agent. As usually defined, the Emax is the maximal effect, on the per cent scale that the assay sets. On to `CCn1c2cnccc2c2cc(Cl)cc(-c3cccnc3)c21` [Example 1, 6-Chloro-9-ethyl-8-pyridin-3-yl-9H-pyrido[3,4-b]indole], for which the EC50 is 1700 nM and the Emax was under 20%.
`CC#CCn1c2cnccc2c2cc(Cl)cc(-c3ccc(Cl)nc3Cl)c21` [Example 3, 9-(But-2-ynyl)-6-chloro-8-(2,6-dichloropyridin-3-yl)-9H-pyrido[3,4-b]indole]: the EC50 is over 10000 nM and the Emax fell in the range of 20 to 50%.
For `N#CCn1c2cnccc2c2cc(Cl)cc(-c3ccc(Cl)nc3Cl)c21` [Example 4, 2-(6-Chloro-8-(2,6-dichloropyridin-3-yl)-9H-pyrido[3,4-b]indol-9-yl)acetonitrile] the same measures were 830 nM and over 80%.
For `CCn1c2c(-c3ccn(Cc4cccnc4C)n3)cc(Cl)cc2c2ccnc(C)c21` [Example 6, 6-Chloro-9-ethyl-1-methyl-8-[1-(2-methyl-pyridin-3-ylmethyl)-1H-pyrazol-3-yl]-9H-pyrido[3,4-b]indole], the response was half-maximal at 2200 nM (EC50) and the Emax lay in the range of 50 to 80%.
Take `CCn1c2c(-c3ccnn3Cc3cccnc3C)cc(Cl)cc2c2ccnc(C)c21` [Example 7, 6-Chloro-9-ethyl-1-methyl-8-[2-(2-methyl-pyridin-3-ylmethyl)-2H-pyrazol-3-yl]-9H-pyrido[3,4-b]indole]: the EC50 was over 3300 nM and the Emax is under 20%.
For the compound `CCn1c2c(-c3cc(C)nn3C)cc(Cl)cc2c2ccnc(C)c21` [Example 9, 6-Chloro-8-(2,5-dimethyl-2H-pyrazol-3-yl)-9-ethyl-1-methyl-9H-pyrido[3,4-b]indole], the EC50 turned out to be 1400 nM and the Emax is over 80%.
In turn, `CC(C)(C)OC(=O)n1cc(-c2cc(Cl)cc3c4ccncc4n(CC(F)(F)F)c23)cn1` [Example 12, tert-Butyl 4-(6-chloro-9-(2,2,2-trifluoroethyl)-9H-pyrido[3,4-b]indol-8-yl)-1H-pyrazole-1-carboxylate] returned an EC50 of over 10000 nM and an Emax of 20 to 50%.
For `COc1ccc(-c2cc(C)cc3c2[nH]c2c(C)nccc23)cc1` [Example 14, 8-(4-Methoxy-phenyl)-1,6-dimethyl-9H-pyrido[3,4-b]indole] the same measures were 860 nM and over 80%.
For the compound `CCn1c2c(-c3cnn(C)c3)cc(C)cc2c2ccnc(C)c21` [Example 15, 9-Ethyl-1,6-dimethyl-8-(1-methyl-1H-pyrazol-4-yl)-9H-pyrido[3,4-b]indole], the midpoint of the response, the EC50, lay at 1000 nM and the Emax was 50 to 80%.
Compound `Cc1cc2c([nH]c3c(-c4ccc(OCCn5cccn5)cc4)cc(Br)cc32)c(C)n1` [Example 16, 6-Bromo-1,3-dimethyl-8-[4-(2-pyrazol-1-yl-ethoxy)-phenyl]-9H-pyrido[3,4-b]indole] came in with an EC50 of 2800 nM and a maximal effect (Emax) of 50 to 80%.
For the compound `CCn1c2c(-c3ccc(OC)c(N)n3)cc(Cl)cc2c2ccnc(C)c21` [Example 17, 6-(6-Chloro-9-ethyl-1-methyl-9H-pyrido[3,4-b]indol-8-yl)-3-methoxy-pyridin-2-ylamine], the EC50 was determined as 3600 nM and the Emax is over 80%.
`CCn1c2c(-c3cc(-c4ccccc4)no3)cc(Cl)cc2c2ccnc(C)c21` [Example 18, 6-Chloro-9-ethyl-1-methyl-8-[3-phenyl-isoxazol-5-yl)-9H-pyrido[3,4-b]indole] gave a concentration for a half-maximal effect (EC50) of 1000 nM and an Emax of over 80%.
Consider `CCn1c2c(-c3ccn(C)n3)cc(Cl)cc2c2ccnc(C)c21` [Example 20, 6-Chloro-9-ethyl-1-methyl-8-(1-methyl-1H-pyrazol-3-yl)-9H-pyrido[3,4-b]indole], for which it took 3900 nM to reach a half-maximal effect (EC50) and the Emax was in the range of 50 to 80%.
For `Cc1nccc2c1[nH]c1c(-c3ccc4c(c3)CC(C)O4)cc(Cl)cc12` (stereo not shown) [Example 23, 6-Chloro-1-methyl-8-(2-methyl-2,3-dihydro-benzofuran-5-yl)-9H-pyrido[3,4-b]indole] the same measures were 1600 nM and 50 to 80%.
Regarding `Cc1nccc2c1[nH]c1c(-c3ccc(C(O)c4ccccc4)cc3)cc(Cl)cc12` (stereo not shown) [Example 24, [4-(6-Chloro-1-methyl-9H-pyrido[3,4-b]indol-8-yl)-phenyl]-phenyl-methanol], the midpoint of the response, the EC50, lay at 2000 nM and the maximum response (Emax) lay within 50 to 80%.
Consider `Cc1nccc2c3cc(Cl)cc(-c4cnn(C)c4)c3n(C)c12` [Example 25, 6-Chloro-1,9-dimethyl-8-(1-methyl-1H-pyrazol-4-yl)-9H-pyrido[3,4-b]indole], for which the response was half-maximal at 170 nM (EC50) and the maximal response (Emax) was over 80%.
`CCn1c2c(-c3ccc(OCCN(C(C)C)C(C)C)cc3)cc(Cl)cc2c2ccnc(C)c21` [Example 26, (2-[4-(6-Chloro-9-ethyl-1-methyl-9H-pyrido[3,4-b]indol-8-yl)-phenoxy]-ethyl)-diisopropyl-amine] showed a 50% effective concentration (EC50) of 530 nM and a maximal effect (Emax) of 50 to 80%.
Compound `CCn1c2c(-c3ccc(OCCN4CCOCC4)cc3)cc(Cl)cc2c2ccnc(C)c21` [Example 28, 6-Chloro-9-ethyl-1-methyl-8-[4-(2-morpholin-4-yl-ethoxy)-phenyl]-9H-pyrido[3,4-b]indole] displayed an EC50 of 190 nM and an Emax of over 80%.
On to `CCn1c2c(-c3ccc(CN4CCOCC4)cc3)cc(Cl)cc2c2ccnc(C)c21` [Example 30, 6-Chloro-9-ethyl-1-methyl-8-(4-morpholin-4-ylmethyl-phenyl)-9H-pyrido[3,4-b]indole], for which the EC50 amounted to 270 nM and the Emax is over 80%.
For `Cc1nccc2c1[nH]c1c(-c3ccc(C=O)cc3)cc(Cl)cc12` [Example 31, 4-(6-Chloro-1-methyl-9H-pyrido[3,4-b]indol-8-yl)-benzaldehyde] the same measures were 250 nM and over 80%.
`Cc1nccc2c1[nH]c1c(-c3ccc(C(O)c4ccccn4)cc3)cc(Cl)cc12` (stereo not shown) [Example 32, [4-(6-Chloro-1-methyl-9H-pyrido[3,4-b]indol-8-yl)-phenyl]-pyridin-2-yl-methanol]: the concentration giving a half-maximal response (EC50) was determined as 370 nM and the Emax lay within 50 to 80%.
The matching figures for `COc1ccc(-c2cc(C(=O)O)cc3c2[nH]c2c(C)nccc23)cc1` [Example 35, 8-(4-Methoxy-phenyl)-1-methyl-9H-pyrido[3,4-b]indole-6-carboxylic acid]: 3100 nM and over 80%.
`COc1ccc(-c2cc(C(N)=O)cc3c2[nH]c2c(C)nccc23)cc1` [Example 36, 8-(4-Methoxy-phenyl)-1-methyl-9H-pyrido[3,4-b]indole-6-carboxamide]: the midpoint of the response, the EC50, lay at 100 nM and the Emax was over 80%.
The matching figures for `CCn1c2c(-c3cnn(Cc4ccc5ccccc5n4)c3)cc(Br)cc2c2ccnc(C)c21` [Example 38, 6-Bromo-9-ethyl-1-methyl-8-(1-quinolin-2-ylmethyl-1H-pyrazol-4-yl)-9H-pyrido[3,4-b]indole]: 2600 nM and 50 to 80%.
The matching figures for `Cc1nccc2c1[nH]c1c(-c3ccc(OCC4COCCO4)cc3)cc(Cl)cc12` (stereo not shown) [Example 40, 6-Chloro-8-[4-([1,4]dioxan-2-ylmethoxy)-phenyl]-1-methyl-9H-pyrido[3,4-b]indole]: 160 nM and over 80%.
Compound `Cc1nccc2c1[nH]c1c(-c3ccc(OCc4ncc5ccccc5n4)cc3)cc(Cl)cc12` [Example 41, 6-Chloro-1-methyl-8-[4-(quinazolin-2-ylmethoxy)-phenyl]-9H-pyrido[3,4-b]indole] registered a 50% effective concentration (EC50) of 240 nM and an Emax of 50 to 80%.
